*1 amine or outer side, *2 acyl side, *3 side chain or, on linkers, in order; H or OH if unused. Where a SMILES comes first, the peptide text is derived from it. Bridges are numbered along the chain shown (N, C = ends). [ ]: non-standard residue; d: D form. The star is where a group is joined. hPhe(3,5-F2-4-CF3) = N[C@@H](CCc1cc(F)c(C(F)(F)F)c(F)c1)C(=O)O; NPrPhe(4-CF3) = CCCN[C@@H](Cc1ccc(C(F)(F)F)cc1)C(=O)O; NMeGly(cPent) = CN[C@H](C(=O)O)C1CCCC1; X7 = C[C@@](N[*:1])(C(=O)[*:2])C1CC1; NMeD = CN[C@@H](CC(=O)O)C(=O)O; NMeL = CN[C@@H](CC(C)C)C(=O)O; αMeS = C[C@](N)(CO)C(=O)O; Morpholide = C1CN(*)CCO1; Aze = O=C(O)[C@@H]1CCN1; Sar = CNCC(=O)O; Allyl = C=CC*
Tests used:
HRAS wild-type protein = HRAS wild-type protein (Homo sapiens, UniProt P01112); assay: Binding to HRAS by surface plasmon resonance (SPR), KD and KD ratio to KRAS
Chain of HRAS wild-type protein (P01112 whole entry): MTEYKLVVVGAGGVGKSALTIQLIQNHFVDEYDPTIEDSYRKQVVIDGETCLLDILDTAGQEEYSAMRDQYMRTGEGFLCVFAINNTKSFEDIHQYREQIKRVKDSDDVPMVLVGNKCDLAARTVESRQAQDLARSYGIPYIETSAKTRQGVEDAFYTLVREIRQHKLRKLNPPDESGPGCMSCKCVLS
In short: (§1)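 Running buffer contained 10 µM GDP and 10 mM MgCl2 to keep RAS in the GDP state, with 4% DMSO at pH 7.4. Compounds were flowed at 100 µL/min in 75 s steps of rising concentration over captured biotin-Avi RAS at 30°C. Sensorgrams were fitted 1:1 for KD.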

[1] = target: GDP-bound KRAS wild-type protein (Homo sapiens, UniProt P01116); assay: Binding to KRAS by surface plasmon resonance (SPR), dissociation constant KD
Chain of GDP-bound KRAS wild-type protein (P01116 1-188 isoform P01116-2): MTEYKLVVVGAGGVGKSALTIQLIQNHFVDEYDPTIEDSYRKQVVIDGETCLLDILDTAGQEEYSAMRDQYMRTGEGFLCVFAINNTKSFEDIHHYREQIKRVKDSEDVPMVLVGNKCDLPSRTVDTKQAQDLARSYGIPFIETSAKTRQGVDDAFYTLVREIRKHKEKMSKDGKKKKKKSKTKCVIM
In short: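 Biotinylated GDP-bound RAS was captured at about 100–300 RU. Running buffer: HBS pH 7.4, 10 mM MgCl2, 10 µM GDP, 1 mM DTT, 0.01% Tween 20, 4% DMSO.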

[2] = target: GDP-bound NRAS wild-type protein (Homo sapiens, UniProt P01111); assay: Binding to NRAS by surface plasmon resonance (SPR), KD and KD ratio to KRAS
Chain of GDP-bound NRAS wild-type protein (P01111 whole entry): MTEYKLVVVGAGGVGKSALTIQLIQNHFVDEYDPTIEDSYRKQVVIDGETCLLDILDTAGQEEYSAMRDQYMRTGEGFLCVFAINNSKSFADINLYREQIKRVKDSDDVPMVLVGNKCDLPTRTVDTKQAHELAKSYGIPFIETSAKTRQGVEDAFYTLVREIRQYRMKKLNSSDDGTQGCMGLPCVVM
In short: as §1

[3] = system: human lung cancer strain NCI-H441; type: cell-based
In short: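 Step one: dispense the test compound in serial DMSO dilutions. Step three: add the reagent and measure […].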

[4] = ratio of KD for HRAS wild-type protein to KD for KRAS
[5] = ratio of KD for GDP-bound NRAS wild-type protein to KD for KRAS
[6] = ratio of the KD value with respect to HRAS wild-type protein to the KD value with respect to KRAS
[7] = Single Cycle Kinetics, 1:1 binding model
[8] = ratio of the KD value with respect to GDP-bound NRAS wild-type protein to the KD value with respect to KRAS

| Kd ([1]; 1:1 binding model) [nM] | IC50 [3] [nM] | Kd [1, 7] [nM] | Kd ([1]; Single Cycle Kinetics) [nM] | SMILES | HRAS /KRAS (HRAS wild-type protein; [4]) | NRAS /KRAS [2, 5] | HRAS /KRAS (HRAS wild-type protein; [6]) | NRAS /KRAS [2, 8] |
| --- | --- | --- | --- | --- | --- | --- | --- | --- |
| 1.1 | 27.6 | – | – | CC[C@H](C)[C@@H]1NC(=O)[C@H](COC)N(C)C(=O)C[C@@H](C(=O)N(C)CC)N(C)C(=O)[C@H](C2CCCC2)N(C)C(=O)C2(CC(C)(C)C2)NC(=O)[C@@H]2CC(F)(F)CN2C(=O)[C@H](CCc2ccc(C(F)(F)F)c(Cl)c2)NC(=O)CN(C)C(=O)[C@H](Cc2ccc(C(F)(F)F)cc2)N2CC/C=C\C[C@@H](C2=O)N(C)C(=O)CN(CC)C1=O [PP3135] | A (a compound having 10 or more and less than 20 is denoted as A) | A (a compound having 10 or more and less than 20 is denoted as A) | – | – |
| – | 52.3 | 0.8 | – | CCO[C@@H]1C[C@H]2C(=O)NC3(CCC3)C(=O)N(C)[C@@H](C3CCCC3)C(=O)N(C)[C@H](C(=O)N3CCOCC3)CC(=O)N(C)[C@@H](CC3CCCC3)C(=O)N[C@@H]([C@@H](C)CC)C(=O)N(C)CC(=O)N(C)[C@H]3CCCCCN(C3=O)[C@@H](Cc3ccc(C(F)(F)F)cc3)C(=O)N(C)CC(=O)N[C@@H](CCc3cc(F)c(C(F)(F)F)c(F)c3)C(=O)N2C1 [PP0685] | – | – | B (a compound having 3 or more and less than 10 is denoted as B) | B (a compound having 3 or more and less than 10 is denoted as B) |
| – | 83 | – | 0.98 | C=CCOC[C@]1(C)NC(=O)[C@@H]2CCCN2C(=O)[C@H](CCc2cc(F)c(C(F)(F)F)c(F)c2)NC(=O)CN(C)C(=O)[C@H](Cc2ccc(C(F)(F)F)cc2)N(CCC)C(=O)CN(C)C(=O)CN(C)C(=O)[C@H]([C@@H](C)CC)NC(=O)[C@H](CC(C)C)N(C)C(=O)C[C@@H](C(=O)N2CCOCC2)N(C)C(=O)[C@H](C2CCCC2)N(C)C1=O [PP0763] ([NMeL]I[Sar][Sar][NPrPhe(4-CF3)][Sar][hPhe(3,5-F2-4-CF3)]P[αMeS](Allyl)[NMeGly(cPent)][NMeD]-Morpholide; lactam N-11) | B (a compound having 3 or more and less than 10 is denoted as B) | B (a compound having 3 or more and less than 10 is denoted as B) | – | – |
| – | 5.7 | 0.29 | – | CCO[C@@H]1C[C@H]2C(=O)NC3(CC(C)(C)C3)C(=O)N(C)[C@@H](C3CCCC3)C(=O)N(C)[C@H](C(=O)N(C)C)CC(=O)N(C)[C@@H](CC(C)C)C(=O)N[C@@H]([C@@H](C)CC)C(=O)N(C3CC3)CC(=O)N(C)[C@H]3C/C=C\CCN(C3=O)[C@@H](Cc3ccc(C)cc3)C(=O)N(C)CC(=O)N[C@@H](CCc3cc(F)c(C(F)(F)F)c(F)c3)C(=O)N2C1 [PP2109] | – | – | A (a compound having 10 or more and less than 20 is denoted as A) | A (a compound having 10 or more and less than 20 is denoted as A) |
| – | 17.5 | 0.11 | – | CCCOC[C@H]1C(=O)N[C@@H]([C@@H](C)CC)C(=O)N(C)CC(=O)N(C)[C@H]2C/C=C\CCN(C2=O)[C@@H](Cc2ccc(C(F)(F)F)cc2)C(=O)N(C)CC(=O)N[C@@H](CCc2ccc(C(F)(F)F)c(OC)c2)C(=O)N2C[C@@H](C)C[C@H]2C(=O)NC2(CCC2)C(=O)N(C)[C@@H](C2CCCC2)C(=O)N(C)[C@H](C(=O)N(C)CCC)CC(=O)N1C [PP2028] | – | – | B (a compound having 3 or more and less than 10 is denoted as B) | A (a compound having 10 or more and less than 20 is denoted as A) |
| – | 434 | – | 4.3 | CCCN1C(=O)CN(C)C(=O)[C@@H]2CCN2C(=O)[C@H]([C@@H](C)CC)NC(=O)[C@H](CC(C)C)N(C)C(=O)C[C@@H](C(=O)N2CCOCC2)N(C)C(=O)[C@H](C2CCCC2)N(C)C(=O)[C@](C)(C2CC2)NC(=O)[C@@H]2CCCN2C(=O)[C@H](CCc2cc(F)c(C(F)(F)F)c(F)c2)NC(=O)CN(C)C(=O)[C@@H]1Cc1ccc(C(F)(F)F)cc1 [PP0772] ([NMeL]I[Aze][Sar][NPrPhe(4-CF3)][Sar][hPhe(3,5-F2-4-CF3)]P[X7][NMeGly(cPent)][NMeD]-Morpholide; lactam N-11) | B (a compound having 3 or more and less than 10 is denoted as B) | B (a compound having 3 or more and less than 10 is denoted as B) | – | – |
| – | 30.1 | 0.36 | – | CC[C@H](C)[C@@H]1NC(=O)[C@H](C2CC2)N(C)C(=O)C[C@@H](C(=O)N(C)CC)N(C)C(=O)[C@H](C2CCCC2)N(C)C(=O)C2(CC(C)(C)C2)NC(=O)[C@@H]2C[C@H](C)CN2C(=O)[C@H](CCc2cc(F)c(C(F)(F)F)c(F)c2)NC(=O)CN(C)C(=O)[C@H](Cc2ccc(C(F)(F)F)cc2)N2CC/C=C\C[C@@H](C2=O)N(C)C(=O)CN(C)C1=O [PP1980] | – | – | B (a compound having 3 or more and less than 10 is denoted as B) | A (a compound having 10 or more and less than 20 is denoted as A) |
| 1.2 | 136 | – | – | CCC[C@H]1C(=O)N[C@@H]([C@@H](C)CC)C(=O)N(C)CC(=O)N(C)[C@H]2C/C=C\CCN(C2=O)[C@@H](Cc2ccc(C)cc2)C(=O)N(C)CC(=O)N[C@@H](CCc2ccc(Cl)c(Cl)c2)C(=O)N2C[C@H](OCC)C[C@H]2C(=O)NC2(CC(C)(C)C2)C(=O)N(C)[C@@H](CC2CC2)C(=O)N(C)[C@H](C(=O)N(C)C)CC(=O)N1C [PP2799] | A (a compound having 10 or more and less than 20 is denoted as A) | A (a compound having 10 or more and less than 20 is denoted as A) | – | – |
| 0.11 | 5.9 | – | – | C#CC[C@H]1C(=O)N[C@@H]([C@@H](C)CC)C(=O)N(C)CC(=O)N(C)[C@H]2C/C=C\CCN(C2=O)[C@@H](Cc2ccc(C)cc2)C(=O)N(C)CC(=O)N[C@@H](CCc2cc(F)c(C(F)(F)F)c(F)c2)C(=O)N2CC3(CC3)C[C@H]2C(=O)NC2(CC(C)(C)C2)C(=O)N(C)[C@@H](C2CCCC2)C(=O)N(C)[C@H](C(=O)N(C)C)CC(=O)N1C [PP2978] | A (a compound having 10 or more and less than 20 is denoted as A) | A (a compound having 10 or more and less than 20 is denoted as A) | – | – |
| – | 250 | – | 2 | CCO[C@@H]1C[C@H]2C(=O)NC3(CCC3)C(=O)N(C)[C@@H]([C@H](C)CC)C(=O)N(C)[C@H](C(=O)N3CCOCC3)CC(=O)N(C)[C@@H](CC(C)C)C(=O)N[C@@H]([C@@H](C)CC)C(=O)N(C)CC(=O)N(C)[C@H]3CCCCCN(C3=O)[C@@H](Cc3ccc(C(F)(F)F)cc3)C(=O)N(C)CC(=O)N[C@@H](CCc3cc(F)c(C(F)(F)F)c(F)c3)C(=O)N2C1 [PP0821] | B (a compound having 3 or more and less than 10 is denoted as B) | A (a compound having 10 or more and less than 20 is denoted as A) | – | – |
| – | 468 | 3.9 | – | CC[C@H](C)[C@@H]1NC(=O)[C@H](CC(C)C)N(C)C(=O)C[C@@H](C(=O)N2CCOCC2)N(C)C(=O)[C@H](C2CCCC2)N(C)C(=O)C2(CCCC2)NC(=O)[C@@H]2CCCN2C(=O)[C@H](CCc2ccc(C(F)(F)F)c(Cl)c2)NC(=O)CN(C)C(=O)[C@H](Cc2ccc(OC)cc2)N2C/C=C\CC[C@@H](C2=O)N(C)C(=O)CN(C)C1=O [PP0609] | – | – | B (a compound having 3 or more and less than 10 is denoted as B) | B (a compound having 3 or more and less than 10 is denoted as B) |
| – | 24.8 | – | 0.16 | CCO[C@@H]1C[C@H]2C(=O)NC3(CCC3)C(=O)N(C)[C@@H](C3CCCC3)C(=O)N(C)[C@H](C(=O)N(C)C)CC(=O)N(C)[C@@H](CC)C(=O)N[C@@H]([C@@H](C)CC)C(=O)N(C)CC(=O)N(C)[C@H]3CCCCCN(C3=O)[C@@H](Cc3ccc(F)c(F)c3)C(=O)N(C)CC(=O)N[C@@H](CCc3cc(F)c(C(F)(F)F)c(F)c3)C(=O)N2C1 [PP0907] | B (a compound having 3 or more and less than 10 is denoted as B) | B (a compound having 3 or more and less than 10 is denoted as B) | – | – |
| – | 286 | – | 1.8 | CCO[C@@H]1C[C@H]2C(=O)NC3(CCC3)C(=O)N(C)[C@@H](C3CCCC3)C(=O)N(C)[C@H](C(=O)N(C)C)CC(=O)N(CC)[C@@H](CC(C)C)C(=O)N[C@@H]([C@@H](C)CC)C(=O)N(C)CC(=O)N(C)[C@H]3CC(C)=C(C)CN(C3=O)[C@@H](Cc3ccc(C(F)(F)F)cc3)C(=O)N(C)CC(=O)N[C@@H](CCc3cc(F)c(C(F)(F)F)c(F)c3)C(=O)N2C1 [PP1051] | C (A compound having a KD ratio of 0.1 or more and less than 3 is denoted as C) | C (A compound having a KD ratio of 0.1 or more and less than 3 is denoted as C) | – | – |
| 0.031 | 1.2 | – | – | CCO[C@@H]1C[C@H]2C(=O)N(C)C3(CC(C)(C)C3)C(=O)N(C)[C@@H](C3CCCC3)C(=O)N(C)[C@H](C(=O)N(C)C)CC(=O)N(C)[C@H]3CCCCCc4ccc(cc4)C[C@@H](C(=O)N(C)CC(=O)N[C@@H](CCc4ccc(C(F)(F)F)c(OC)c4)C(=O)N2C1)N1CC/C=C\C[C@@H](C1=O)N(C)C(=O)CN(C)C(=O)[C@H]([C@@H](C)CC)NC3=O [PP3091] | B (a compound having 3 or more and less than 10 is denoted as B) | A (a compound having 10 or more and less than 20 is denoted as A) | – | – |
| – | 2.7 | 0.11 | – | CCO[C@@H]1C[C@H]2C(=O)NC3(CCC3)C(=O)N(C)[C@@H](C3CCCC3)C(=O)N(C)[C@H](C(=O)N(C)CC)CC(=O)N(C)[C@@H](C3CCC3)C(=O)N[C@@H]([C@@H](C)CC)C(=O)N(C)CC(=O)N(C)[C@H]3C/C=C\CCN(C3=O)[C@@H](Cc3ccc(C(F)(F)F)cc3)C(=O)N(C)CC(=O)N[C@@H](CCc3ccc(C(F)(F)F)c(OC)c3)C(=O)N2C1 [PP2022] | – | – | A (a compound having 10 or more and less than 20 is denoted as A) | A (a compound having 10 or more and less than 20 is denoted as A) |

From patent publication EP4603105A1, “PHARMACEUTICAL COMPOSITION CONTAINING CYCLIC COMPOUND HAVING SELECTIVE KRAS INHIBITORY EFFECT AGAINST HRAS AND NRAS” (CHUGAI SEIYAKU KABUSHIKI KAISHA, priority 2022, dated 2024)
